The values below come from publication PMC7539012, “Hyperphosphorylated tau aggregation and cytotoxicity modulators screen identified prescription drugs linked to Alzheimer's disease and cognitive functions” (Scientific Reports, 2020).

Molecules are shown by their SMILES. Counter-ions that a name gives are not always drawn.

One test has as its system T1, 1N4R p-tau.
T1 construct: made in house; host or cells: E. coli (PIMAX system)
Nature of the test: p-tau aggregation modulator screen of 1280-compound library (ThS fluorescence net change over 16 h).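 As to ThS net change: 30 µM compound with 6 µM p-tau over 16 h.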 The test is classed as biochemical. Also noted: key to PTAI>2SD: *: PTAI>2SD.
Settings: not given
As for `C[C@@H]1C[C@H]2[C@@H]3C[C@H](F)C4=CC(=O)C=C[C@]4(C)[C@@]3(F)[C@@H](O)C[C@]2(C)[C@@]1(O)C(=O)COC(=O)C(C)(C)C` [Flumethasone pivalate], the ThS net change came to 476. Still for that read-out and setting: in the case of `COCCCC/C(=N\OCCN)c1ccc(C(F)(F)F)cc1` [Fluvoxamine maleate] it was 420; in that of `C[C@]12CCC(=O)C(O)=C1CC[C@@H]1[C@@H]2CC[C@]2(C)C(=O)CC[C@@H]12` [Formestane], 413.

Staying with this test, now noted: 1280-compound library screen; ThS fluorescence net change over 16 h.
`O=C(O)Cc1sc(-c2ccccc2)nc1-c1ccc(Cl)cc1` [Fentiazac] gave a ThS net change of 382. Still for that read-out and setting: in the case of `O=c1[nH]c(=O)n([C@H]2C[C@H](O)[C@@H](CO)O2)cc1F` [Floxuridine] it was 388; in that of `CC(=O)OCC(=O)[C@@]1(O)CC[C@H]2[C@@H]3CCC4=CC(=O)CC[C@]4(C)[C@@]3(F)[C@@H](O)C[C@@]21C` [Fludrocortisone acetate], 380. Turning to `CC1(C)O[C@@H]2C[C@H]3[C@@H]4C[C@H](F)C5=CC(=O)C=C[C@]5(C)[C@H]4[C@@H](O)C[C@]3(C)[C@]2(C(=O)CO)O1` [Flunisolide], the ThS net change is listed as 378. Still for that read-out and setting: in the case of `CC(=O)OCC(=O)[C@@]12OC(C)(C)O[C@@H]1C[C@H]1[C@@H]3C[C@H](F)C4=CC(=O)C=C[C@]4(C)[C@@]3(F)[C@@H](O)C[C@@]12C` [Fluocinonide] it was 387; in that of `CC(=O)[C@@]1(O)CC[C@H]2[C@@H]3C[C@H](C)C4=CC(=O)C=C[C@]4(C)[C@@]3(F)[C@@H](O)C[C@@]21C` [Fluorometholone], 383.

The compound `Nc1nc(=O)c2nc(CNc3ccc(C(=O)N[C@@H](CCC(=O)O)C(=O)O)cc3)cnc2[nH]1` [Folic acid] registered a ThS net change of 398. Same read-out and setting: in the case of `O=C(O)c1ccccc1OP(=O)(O)O` [Fosfosal] it was 380.

The same test, now with this note: 1280-compound library screen; […].
In the case of `CC(Cc1ccc(O)cc1)NCC(O)c1cc(O)cc(O)c1` (stereo not shown) [Fenoterol hydrobromide], the ThS net change is listed as 405.

Staying with this test, now noted: flag: p-tau aggregation inhibitor, ThS net change more than 2 SD from mean.
Take `COC(=O)Nc1nc2ccc(Sc3ccccc3)cc2[nH]1` [Fenbendazole]: the “PTAI>2SD” value is listed as “*”.

The test is the same for the next values; noted with them: library screen, ThS fluorescence net change over 16 h with p-tau.
Turning to `COC(=O)Nc1nc2ccc(Sc3ccccc3)cc2[nH]1` [Fenbendazole], the ThS net change worked out at 148. Same read-out and setting: in the case of `Oc1ccc(C2CNCCc3c2cc(O)c(O)c3Cl)cc1` (stereo not shown) [Fenoldopam] it was 310; in that of `CC1CCc2cc(F)cc3c(=O)c(C(=O)O)cn1c23` (stereo not shown) [Flumequine], 303.

Regarding `O=C1NCN(c2ccccc2)C12CCN(CCCC(c1ccc(F)cc1)c1ccc(F)cc1)CC2` [Fluspirilen], the ThS net change is 258.

The same test, now with this note: p-tau aggregation modulator screen of 1280-compound library; ThS fluorescence net change.
As to `O=C(O)CCC(=O)c1ccc(-c2ccccc2)cc1` [Fenbufen], the ThS net change is reported as 368. On the same count and under the same terms, in the case of `CC(NCCC(c1ccccc1)c1ccccc1)c1ccccc1` (stereo not shown) [Fendiline hydrochloride] it was 335.

As to `CCCCC(O)c1ccccc1` (stereo not shown) [Fenipentol], the ThS net change was 375.

The compound `O=C1NCC2(CCN(CCc3ccccc3)CC2)O1` [Fenspiride hydrochloride] came in with a ThS net change of 362. Compound `CC(C)(C)NC(=O)[C@H]1CC[C@H]2[C@@H]3CC[C@H]4NC(=O)C=C[C@]4(C)[C@H]3CC[C@]12C` [Finasteride] came in with a ThS net change of 346. Consider `O=C(COc1ccc(Cl)cc1)N1CCN(Cc2ccc3c(c2)OCO3)CC1` [Fipexide hydrochloride], for which the ThS net change was determined as 359. `Cc1c(-c2ccccc2)oc2c(C(=O)OCCN3CCCCC3)cccc2c1=O` [Flavoxate hydrochloride] registered a ThS net change of 359. Still for that read-out and setting: in the case of `O=C(NCC1CCCCN1)c1cc(OCC(F)(F)F)ccc1OCC(F)(F)F` (stereo not shown) [Flecainide acetate] it was 354; in that of `COC(=O)Nc1nc2cc(C(=O)c3ccc(F)cc3)ccc2[nH]1` [Flubendazol], 332. Same read-out and setting: in the case of `OC(Cn1cncn1)(Cn1cncn1)c1ccc(F)cc1F` [Fluconazole] it was 374. Take `Nc1[nH]c(=O)ncc1F` [Flucytosine]: the ThS net change amounted to 334.

In the case of `Fc1ccc(C(c2ccc(F)cc2)N2CCN(C/C=C/c3ccccc3)CC2)cc1` [Flunarizine dihydrochloride], the ThS net change was 370. Still for that read-out and setting: in the case of `Cc1c(Nc2ncccc2C(=O)O)cccc1C(F)(F)F` [Flunixin meglumine] it was 354; in that of `CNCCC(Oc1ccc(C(F)(F)F)cc1)c1ccccc1` (stereo not shown) [Fluoxetine hydrochloride], 370; in that of `OCCN1CCN(CCCN2c3ccccc3Sc3ccc(C(F)(F)F)cc32)CC1` [Fluphenazine dihydrochloride], 370. Same read-out and setting: in the case of `CC1(C)O[C@@H]2C[C@H]3[C@@H]4C[C@H](F)C5=CC(=O)CC[C@]5(C)[C@H]4[C@@H](O)C[C@]3(C)[C@]2(C(=O)CO)O1` [Flurandrenolide] it was 377; in that of `CC(C(=O)O)c1ccc(-c2ccccc2)c(F)c1` (stereo not shown) [Flurbiprofen], 377.

In turn, `CC(C)C(=O)Nc1ccc([N+](=O)[O-])c(C(F)(F)F)c1` [Flutamide] gave a ThS net change of 331. Same read-out and setting: in the case of `Nc1nc(=O)c2c([nH]1)NCC(CNc1ccc(C(=O)N[C@@H](CCC(=O)[O-])C(=O)[O-])cc1)N2C=O.[Ca+2]` (stereo partly shown) [Folinic acid calcium salt] it was 359; in that of `Cc1cn[nH]c1` [Fomepizole], 344.

The test is the same for the next values; noted with them: p-tau aggregation modulator screen of 1280-compound library; […].
Compound `CC(C(=O)[O-])c1cccc(Oc2ccccc2)c1.CC(C(=O)[O-])c1cccc(Oc2ccccc2)c1.O.O.[Ca+2]` (stereo not shown) [Fenoprofen calcium salt dihydrate] yielded a ThS net change of 366.

Staying with this test, now noted: p-tau aggregation modulator screen of the compound library, ThS fluorescence net change.
With `CC(C)OC(=O)C(C)(C)Oc1ccc(C(=O)c2ccc(Cl)cc2)cc1` [Fenofibrate], the ThS net change was 531. `CC(C)(C(=O)O)c1ccc(C(O)CCCN2CCC(C(O)(c3ccccc3)c3ccccc3)CC2)cc1` (stereo not shown) [Fexofenadine HCl] displayed a ThS net change of 435. On the same count and under the same terms, in the case of `CN1CCN(c2c(F)cc3c(=O)c(C(=O)O)cn(CCF)c3c2F)CC1` [Fleroxacin] it was 424. Still for that read-out and setting: in the case of `CS(=O)(=O)c1ccc([C@@H](O)[C@@H](CF)NC(=O)C(Cl)Cl)cc1` [Florfenicol] it was 433. Still for that read-out and setting: in the case of `Cc1onc(-c2c(F)cccc2Cl)c1C(=O)N[C@@H]1C(=O)N2[C@@H]1SC(C)(C)[C@@H]2C(=O)O` [Flucloxacillin sodium] it was 443; in that of `Nc1nc(F)nc2c1ncn2[C@@H]1O[C@H](CO)[C@@H](O)[C@@H]1O` [Fludarabine], 428; in that of `O=C(O)c1ccccc1Nc1cccc(C(F)(F)F)c1` [Flufenamic acid], 416.

`CC1(C)O[C@@H]2C[C@H]3[C@@H]4C[C@H](F)C5=CC(=O)C=C[C@]5(C)[C@@]4(F)[C@@H](O)C[C@]3(C)[C@]2(C(=O)CO)O1` [Fluocinolone acetonide] showed a ThS net change of 460.

As to `CCC(=O)O[C@]1(C(=O)SCF)[C@H](C)C[C@H]2[C@@H]3C[C@H](F)C4=CC(=O)C=C[C@]4(C)[C@@]3(F)[C@@H](O)C[C@@]21C` [Fluticasone propionate], the ThS net change is listed as 503. Same read-out and setting: in the case of `CC(C)n1c(/C=C/C(O)CC(O)CC(=O)O)c(-c2ccc(F)cc2)c2ccccc21` (stereo not shown) [Fluvastatin sodium salt] it was 473; in that of `CCC(=O)O[C@@H](O[P@](=O)(CCCCc1ccccc1)CC(=O)N1C[C@H](C2CCCCC2)C[C@H]1C(=O)O)C(C)C` [Fosinopril], 587.
